Among the data in PubChem BioAssay AID210 (DTP/NCI, 2004) are T/C values, retold here.

Where “and” joins values, the source holds several entries; their conditions need not be identical. Equal values may be shown once. Toxic doses and inconclusive results are not listed. *1 amine or outer side, *2 acyl side, *3 side chain or, on linkers, in order; H or OH if unused. Where a SMILES comes first, the peptide text is derived from it. Bridges are numbered along the chain shown (N, C = ends). Roman numbers before positions name the chains, in order. [ ]: non-standard residue; d: D form. Actinocin(9to1) = Cc1c2oc3c(C)ccc(C(=O)[*:1])c3nc-2c(C(=O)[*:2])c(N)c1=O; aThr = C[C@H](O)[C@H](N)C(=O)O; NMeV = CN[C@H](C(=O)O)C(C)C; Sar = CNCC(=O)O

The test deals with CD2F1 mice, ip Colon 26 adenocarcinoma, median survival T/C. The test is described as follows: NCI In Vivo Anticancer Drug Screen. Data for tumor model Colon 26 Adenocarcinoma (intraperitoneal) in CD2F1 (CDF1) mice. The note with it: endpoint: median survival time, higher = longer survival. How it is done: The antitumor activity of compounds was measured in mice bearing transplantable tumors. Survival or tumor size were measured and the results are expressed as the measurement made in the treated group (T) divided by the measurement made in the vehicle treated control group (C). The tumor model used in this assay is Colon 26 Adenocarcinoma (intraperitoneal) in CD2F1 (CDF1) mice

[1] abbreviates: dose: 25.0 mg/kg/injection, schedule: Q04DX003 (ip), vehicle: Klucel (hydroxypropylcellulose) (HPC).
[2] abbreviates: dose: 50.0 mg/kg/injection, schedule: Q04DX003 (ip), vehicle: Klucel (hydroxypropylcellulose) (HPC).

Turning to `C1CCC2[N-]CC3CCCCC3[N-]CC3CCCCC3[N-]CC3CCCCC3[N-]CC2C1.[Cu]` (stereo unspecified), the T/C runs as follows: (dose: 0.63 mg/kg/injection, schedule: Q04DX003 (ip), vehicle: Klucel (hydroxypropylcellulose) (HPC)) 110 % of control; (dose: 1.25 mg/kg/injection, schedule: Q04DX003 (ip), vehicle: Klucel (hydroxypropylcellulose) (HPC)) 107 % of control; (dose: 2.5 mg/kg/injection, schedule: Q04DX003 (ip), vehicle: Klucel (hydroxypropylcellulose) (HPC)) 105 % of control; (dose: 5.0 mg/kg/injection, schedule: Q04DX003 (ip), vehicle: Klucel (hydroxypropylcellulose) (HPC)) 111 % of control; (dose: 10.0 mg/kg/injection, schedule: Q04DX003 (ip), vehicle: Klucel (hydroxypropylcellulose) (HPC)) 122 % of control; (dose: 20.0 mg/kg/injection, schedule: Q04DX003 (ip), vehicle: Klucel (hydroxypropylcellulose) (HPC)) 111 % of control.
For the compound `C=C(C)[C@]12CC(C)C34OC(/C=C\C=C\CCCCCCCCC)(O[C@@H]1[C@@H]3[C@@H]1O[C@]1(CO)[C@@H](O)[C@]1(O)C(=O)C(C)=C[C@@H]41)O2` (stereo partly specified), the T/C reads like this: (dose: 0.18 mg/kg/injection, schedule: Q04DX003 (ip), vehicle: distilled water + alcohol) 102 % of control; (dose: 0.37 mg/kg/injection, schedule: Q04DX003 (ip), vehicle: distilled water + alcohol) 105 % of control; (dose: 0.75 mg/kg/injection, schedule: Q04DX003 (ip), vehicle: distilled water + alcohol) 114 % of control.
On to `CCOC(=O)Nc1cc2c(c(N)n1)N=C(CN(C)c1ccccc1)CN2`, for which the T/C reads like this: (dose: 6.25 mg/kg/injection, schedule: Q04DX003 (ip), vehicle: Klucel (hydroxypropylcellulose) (HPC)) 108 % of control; under setting [1], 177 % of control; under setting [2], 119 % of control.
As to `COC1C(O)C(C)OC(OC2C(Oc3cccc4c(O)c5c(=O)oc6ccc(C)c7c(=O)oc(c34)c5c67)OC(C)C(O)C2O)C1O` (stereo unspecified), the T/C (dose: 12.5 mg/kg/injection, schedule: Q04DX002 (ip), vehicle: Klucel (hydroxypropylcellulose) (HPC)) was 105 % of control and 112 % of control; the T/C (dose: 12.5 mg/kg/injection, schedule: Q04DX003 (ip), vehicle: Klucel (hydroxypropylcellulose) (HPC)) is 106 % of control; the T/C (dose: 25.0 mg/kg/injection, schedule: Q04DX002 (ip), vehicle: Klucel (hydroxypropylcellulose) (HPC)) is 107 % of control and 118 % of control; the T/C under setting [1] is 116 % of control; the T/C (dose: 50.0 mg/kg/injection, schedule: Q04DX002 (ip), vehicle: Klucel (hydroxypropylcellulose) (HPC)) is 106 % of control; the T/C under setting [2] was 106 % of control. In addition, the T/C was 107 % of control and 100 % of control (dose: 100.0 mg/kg/injection, schedule: Q04DX002 (ip), vehicle: Klucel (hydroxypropylcellulose) (HPC)); 110 % of control (dose: 100.0 mg/kg/injection, schedule: Q04DX003 (ip), vehicle: Klucel (hydroxypropylcellulose) (HPC)).
Turning to `CN(C)CCNc1ccc(NCCN(C)C)c2c1C(=O)c1ccccc1C2=O`, the T/C (dose: 5.0 mg/kg/injection, schedule: Q01DX009 (ip), vehicle: acid diluted with saline) was 115 % of control and 119 % of control; the T/C (dose: 10.0 mg/kg/injection, schedule: Q01DX009 (ip), vehicle: acid diluted with saline) was 108 % of control and 123 % of control and 202 % of control; the T/C (dose: 40.0 mg/kg/injection, schedule: Q01DX009 (ip), vehicle: acid diluted with saline) is 104 % of control and 105 % of control.
As to `COc1ccc(CC2C(=O)NC(C)C(=O)N(C)C3C(=O)N(C)C(Cc4ccc(O)c(c4)Oc4ccc(cc4)C3O)C(=O)NC(C)C(=O)NC(C)C(=O)N2C)cc1` (stereo unspecified), the T/C was 98 % of control (dose: 0.5 mg/kg/injection, schedule: Q04DX003 (ip), vehicle: saline); 101 % of control (dose: 1.0 mg/kg/injection, schedule: Q04DX003 (ip), vehicle: saline); 91 % of control (dose: 1.08 mg/kg/injection, schedule: Q04DX003 (ip), vehicle: other); 113 % of control (dose: 1.8 mg/kg/injection, schedule: Q04DX003 (ip), vehicle: other); 92 % of control (dose: 2.0 mg/kg/injection, schedule: Q04DX003 (ip), vehicle: saline); 120 % of control (dose: 3.0 mg/kg/injection, schedule: Q04DX003 (ip), vehicle: other). For the same compound, where the note is “dose: 5.0 mg/kg/injection, schedule: Q04DX003 (ip), vehicle: other”, the T/C was 114 % of control.
For `C=CCCC(=O)CCCC(=O)O[C@@H]1[C@@H]2[C@H](CC1(C)C)[C@H](O)[C@@]13O[C@@H]1[C@H](O)[C@@]1(CO1)[C@@]23C`, the T/C runs as follows: (dose: 6.25 micrograms/kg/injection, schedule: Q04DX002 (ip), vehicle: Klucel (hydroxypropylcellulose) (HPC)) 123 % of control; (dose: 25.0 micrograms/kg/injection, schedule: Q04DX002 (ip), vehicle: Klucel (hydroxypropylcellulose) (HPC)) 119 % of control and 120 % of control; (dose: 50.0 micrograms/kg/injection, schedule: Q04DX002 (ip), vehicle: Klucel (hydroxypropylcellulose) (HPC)) 102 % of control and 98 % of control; (dose: 100.0 micrograms/kg/injection, schedule: Q04DX002 (ip), vehicle: Klucel (hydroxypropylcellulose) (HPC)) 117 % of control; (dose: 200.0 micrograms/kg/injection, schedule: Q04DX002 (ip), vehicle: Klucel (hydroxypropylcellulose) (HPC)) 120 % of control and 88 % of control; (dose: 400.0 micrograms/kg/injection, schedule: Q04DX002 (ip), vehicle: Klucel (hydroxypropylcellulose) (HPC)) 100 % of control.
In the case of `Cc1c2oc3c(C)ccc(C(=O)N[C@@H]4C(=O)N[C@H](C(C)C)C(=O)N5CCC[C@H]5C(=O)N(C)CC(=O)N(C)[C@@H](C(C)C)C(=O)O[C@H]4C)c3nc-2c(C(=O)N[C@@H]2C(=O)N[C@H](C(C)C)C(=O)N3CCC[C@H]3C(=O)N(C)CC(=O)N(C)[C@@H](C(C)C)C(=O)O[C@H]2C)c(N)c1=O` (I: [aThr][dV]P[Sar][NMeV] / II: [aThr][dV]P[Sar][NMeV]; ester I:1-I:C, II:1-II:C; linker I:N-II:N via Actinocin(9to1)), the T/C is 92 % of control (dose: 0.13 mg/kg/injection, schedule: Q01DX001 (ip), vehicle: saline); 99 % of control (dose: 0.25 mg/kg/injection, schedule: Q01DX001 (ip), vehicle: saline); 110 % of control (dose: 0.5 mg/kg/injection, schedule: Q01DX001 (ip), vehicle: saline); 107 % of control (dose: 1.0 mg/kg/injection, schedule: Q01DX001 (ip), vehicle: saline); 122 % of control (dose: 28.0 micrograms/kg/injection, schedule: Q04DX003 (ip), vehicle: saline); 113 % of control (dose: 125.0 micrograms/kg/injection, schedule: Q01DX001 (ip), vehicle: saline + alcohol). Besides, the T/C by setting is: (dose: 180.0 micrograms/kg/injection, schedule: Q04DX003 (ip), vehicle: saline + alcohol) 123 % of control; (dose: 216.0 micrograms/kg/injection, schedule: Q04DX003 (ip), vehicle: saline) 156 % of control; (dose: 250.0 micrograms/kg/injection, schedule: Q01DX001 (ip), vehicle: saline + alcohol) 109 % of control; (dose: 500.0 micrograms/kg/injection, schedule: Q01DX001 (ip), vehicle: saline + alcohol) 113 % of control; (dose: 500.0 micrograms/kg/injection, schedule: Q04DX003 (ip), vehicle: saline + alcohol) 153 % of control.
For `O=c1[nH]c(=O)n(C2CC(O)C(CO)O2)cc1F` (stereo unspecified), the T/C reads like this: (dose: 80.0 mg/kg/injection, schedule: Q07DX003 (ip), vehicle: saline) 155 % of control; (dose: 120.0 mg/kg/injection, schedule: Q07DX003 (ip), vehicle: saline) 161 % of control and 171 % of control; (dose: 190.0 mg/kg/injection, schedule: Q07DX003 (ip), vehicle: saline) 150 % of control and 167 % of control; (dose: 280.0 mg/kg/injection, schedule: Q07DX003 (ip), vehicle: saline) 167 % of control and 169 % of control.
With `NC(=O)c1[nH]nc(C2OC(CO)C(O)C2O)c1O` (stereo unspecified), the T/C (dose: 2.59 mg/kg/injection, schedule: Q04DX003 (ip), vehicle: saline) was 115 % of control; the T/C (dose: 4.32 mg/kg/injection, schedule: Q04DX003 (ip), vehicle: saline) is 107 % of control; the T/C (dose: 7.2 mg/kg/injection, schedule: Q04DX003 (ip), vehicle: saline) was 123 % of control; the T/C (dose: 12.0 mg/kg/injection, schedule: Q04DX003 (ip), vehicle: saline) was 118 % of control; the T/C (dose: 20.0 mg/kg/injection, schedule: Q04DX003 (ip), vehicle: saline) is 90 % of control.
